# Source: patent US20260240914A1, “MENIN-MLL INHIBITORS AND COMPOSITIONS FOR PROLIFERATION OF BETA CELLS” (BIOMEA FUSION, INC., priority 2022, published 2026)
# How the values were obtained:
# Format in all cases: cell-based
# human islet microtissues = test: Total ATP content of human islet microtissues (CellTiter-Glo cell viability); details: 0.075 μM, 0.15 μM and 0.3 μM; 1, 2 or 3 weeks; through the duration of the assay
# Method: (§1) The ability of menin-MLL inhibitors to induce beta cell proliferation is tested on human islet microtissue preparations (InSphero). Briefly, human islet microtissues are produced by enzymatic dissociation of the primary islet cells followed by controlled scaffold-free hanging-drop-based self-reaggregation of the islet cells (Misun et al., 2020, Adv. Biosyst. 2020, 4, 1900291). The process helps eliminate contaminating exocrine cells, while enabling homogenous and native-like distribution of endocrine cells within each islet microtissue. Islet microtissues generated by this process are uniform in size, and cellular composition, long lived, functionally robust and display long-term and stable functionality and viability during in vitro culture (Misun et al., 2020, Adv. Biosyst. 2020, 4, 1900291). […]
# (§2) At the described termination point (1, 2, or 3 weeks), culture media supernatants were collected for measurement of chronic insulin secretion (insulin secreted since last medium exchange, i.e. 72 hours in this project). […] Tissues were next analyzed for total ATP content using the Promega CellTiter-Glo® Luminescent Cell Viability Assay. […] Supernatants and lysates were appropriately diluted and total and secreted insulin were quantified using ALPCO Stellux® Chemi Human Insulin ELISA.
# [1] = system: human pancreatic islet beta cells; test: Beta cell proliferation in human islet microtissues (EdU / NKX6.1 3D staining and microscopy); details: for proliferating beta cell fraction (EdU+NKX6.1+/NKX6.1 %): 0.3 μM
# Method: The ability of menin-MLL inhibitors to induce beta cell proliferation is tested on human islet microtissue preparations (InSphero). Briefly, human islet microtissues are produced by enzymatic dissociation of the primary islet cells followed by controlled scaffold-free hanging-drop-based self-reaggregation of the islet cells (Misun et al., 2020, Adv. Biosyst. 2020, 4, 1900291). The process helps eliminate contaminating exocrine cells, while enabling homogenous and native-like distribution of endocrine cells within each islet microtissue. Islet microtissues generated by this process are uniform in size, and cellular composition, long lived, functionally robust and display long-term and stable functionality and viability during in vitro culture (Misun et al., 2020, Adv. Biosyst. 2020, 4, 1900291). The methodology confirms primary human beta cells can be cultured long term (few weeks) under ex-vivo culture conditions to enable beta cell expansion ex-vivo.
# Islet microtissues (MTs) were aggregated for 5 days and then released into ultra-low attachment plates. Half of the plates were maintained in standard culture medium (5.5 mM glucose), and half were cultured in high-glucose culture medium (GTX, 8 mM glucose) starting at Day 9, for the duration of the whole experiment. Starting on Day 12 (after 3 days of GTX pre-treatment for the relevant plates), dosing with compound 10, a representative irreversible menin-MLL inhibitor, was initiated, using a Tecan D300e Digital Dispenser for harmine and Biomea compound. DMSO was normalized by volume across all wells. Media was exchanged and compounds redosed every 2-3 days throughout the experiment. EdU was included during the final 4 days of each treatment period. Compound dosing was randomized; to avoid compound cross-contamination between wells, all media exchanges were performed using 96-well deep-well plates with pipette tip exchange.
# Proliferating cells were labeled in 3D by incubating MTs with […] EdU during the final 4 days of compound treatment. At the described termination point (1, 2, or 3 weeks), MTs were washed twice with PBS, fixed for 15 min in 4% PFA, washed twice more with PBS and stored in PBS with 0.05% sodium azide until staining. Islet MTs were then permeabilized with permeabilization buffer (Triton® X-100, 0.5% in PBS w/o Mg2+Ca2+) and washed twice with PBS. EdU was labeled using the Click-it reaction (Click-iT™ EdU Alexa Fluor™ 647 HCS Assay, Thermo Fisher). MTs were washed twice with PBS and blocked with 10% FCS solution to prevent nonspecific antibody binding, before overnight incubation with rabbit mAB NKX6.1 [EPR20405] (Abcam, ab221549) at a 1:200 dilution in antibody dilution buffer (10% FCS, 0.2% Triton® X-100 in PBS w/o Mg2+Ca2+) as a […]. Goat anti-rabbit secondary antibody AF568 (ThermoFisher A11036) was used as secondary antibody at a 1:200 dilution in antibody dilution buffer, along with DAPI. Finally, islet MTs were transferred into Akura 384-well plates and cleared with ScaleS4 for 3D imaging. Images were acquired using the Yokogawa CQI Benchtop High-Content Analysis System, taking fluorescent images in […] z-steps in blue, red and far-red channels. DAPI-, NKX6.1- and EdU-positive nuclei and signal colocalization were quantified in 3D using a customized CellPathfinder pipeline. Proliferating cells and proliferating-cells were manually counted to validate automated results. Statistical significance was determined with One-way ANOVA and Dunnett's multiple comparisons test, rejecting the null hypothesis at p=0.05. Outliers were detected with ROUT's outlier test (Q=5%). No outlier test was applied to the proliferating cells.
# human islet beta cells [2] = test: Glucose stimulated insulin secretion assay in human islet microtissues
# Method: as §1, §2
# human islet beta cells [3] = test: Total insulin content of human islet microtissues (insulin ELISA of lysates)
# Method: as §1, §2
# [4] = compound 10 treatment, dose-dependent
# [5] = standard glucose culture conditions (5.5 mM glucose)
smiles,measurement,setting,value
C=CC(=O)N[C@@H]1CCCN(Cc2ccnc(C(=O)Nc3ccc(-c4cc5c(N6CCOCC6)ncnc5[nH]4)cc3)c2)C1 (racemic) [Compound 10],viability as revealed by ATP content readout,human islet microtissues,good viability
same,proliferation at all three concentrations,"[1]; 0.075 μM, 0.15 μM, and 0.3 μM, 7, 14, 21 days, reached highest by day 21",increase in proliferation
same,proliferating beta cell fraction (EdU+NKX6.1+/NKX6.1 %),"[1]; Day 14 of culture, compared to DMSO control (FIG. 1, graphs B)",substantially
same,proliferating beta cell fraction (EdU+NKX6.1+/NKX6.1 %),"[1]; Day 21 of culture, compared to DMSO control (FIG. 2, graphs B)",substantially
same,Total cell proliferation,[1]; compared to DMSO control,not increased
same,Total β-cell count,[1]; [4],significantly increased
same,β-cell fraction (NKX6.1+/DAPI+ %),[1]; [4],significantly increased
same,β-cell proliferation relative to solvent control,"[1]; high glucose medium (8 mM glucose), 0.075 μM, 0.15 μM, and 0.3 μM, more pronounced than in standard medium",dose dependent increase
same,glucose stimulated insulin secretion,"human islet beta cells [2]; high glucose conditions (8 mM glucose), compared to vehicle treatment",improved
same,glucose stimulated insulin secretion (improvement),human islet beta cells [2]; [5],not observed
same,beta cell insulin content,"human islet beta cells [3]; high glucose conditions (8 mM glucose), treated for 2 and 3 weeks, vs vehicle control (DMSO)",dose dependent increase
same,total insulin content,human islet beta cells [3]; [5],largely unchanged
